What was measured:
K-562 = assay: NCI 60 cell panel SRB screen; assay type: cell-based; settings: Homo sapiens, K562; for activity at 10 µM: K-562, single dose 10 μM, read-out: percent cell growth promotion
RPMI-8226 = assay: NCI 60 cell panel SRB screen; assay type: cell-based; settings: Homo sapiens; for activity at 10 µM: RPMI-8226, single dose 10 μM, read-out: percent cell growth promotion
A549/ATCC = assay: NCI 60 cell panel SRB screen; assay type: cell-based; settings: Homo sapiens; for activity at 10 µM: single dose 10 μM, read-out: percent cell growth promotion
HOP-62 = assay: NCI 60 cell panel SRB screen; assay type: cell-based; settings: Homo sapiens; for activity at 10 µM: HOP-62, single dose 10 μM, read-out: percent cell growth promotion
NCI-H226 = assay: NCI 60 cell panel SRB screen; assay type: cell-based; settings: Homo sapiens; for activity at 10 µM: NCI-H226, single dose 10 μM, read-out: percent cell growth promotion
NCI-H23 = assay: NCI 60 cell panel SRB screen; assay type: cell-based; settings: Homo sapiens; for activity at 10 µM: NCI-H23, single dose 10 μM, read-out: percent cell growth promotion
NCI-H522 = assay: NCI 60 cell panel SRB screen; assay type: cell-based; settings: Homo sapiens; for activity at 10 µM: NCI-H522, single dose 10 μM, read-out: percent cell growth promotion
HCC-2998 = assay: NCI 60 cell panel SRB screen; assay type: cell-based; settings: Homo sapiens; for activity at 10 µM: HCC-2998, single dose 10 μM, read-out: percent cell growth promotion
SF-295 = assay: NCI 60 cell panel SRB screen; assay type: cell-based; settings: Homo sapiens; for activity at 10 µM: SF-295, single dose 10 μM, read-out: percent cell growth promotion
SNB-19 = assay: NCI 60 cell panel SRB screen; assay type: cell-based; settings: Homo sapiens; for activity at 10 µM: SNB-19, single dose 10 μM, read-out: percent cell growth promotion
OVCAR-8 = assay: NCI 60 cell panel SRB screen; assay type: cell-based; settings: Homo sapiens; for activity at 10 µM: OVCAR-8, single dose 10 μM, read-out: percent cell growth promotion
NCI/ADR-RES = assay: NCI 60 cell panel SRB screen; assay type: cell-based; settings: Homo sapiens; for activity at 10 µM: single dose 10 μM, read-out: percent cell growth promotion
ACHN = assay: NCI 60 cell panel SRB screen; assay type: cell-based; settings: Homo sapiens; for activity at 10 µM: single dose 10 μM, read-out: percent cell growth promotion
UO-31 = assay: NCI 60 cell panel SRB screen; assay type: cell-based; settings: Homo sapiens; for activity at 10 µM: UO-31, single dose 10 μM, read-out: percent cell growth promotion
PC-3 = assay: NCI 60 cell panel SRB screen; assay type: cell-based; settings: Homo sapiens; for activity at 10 µM: PC-3, single dose 10 μM, read-out: percent cell growth promotion
MCF7 = assay: NCI 60 cell panel SRB screen; assay type: cell-based; settings: Homo sapiens; for activity at 10 µM: MCF7, read-out: percent cell growth promotion
MDA-MB 231/ATCC = assay: NCI 60 cell panel SRB screen; assay type: cell-based; settings: Homo sapiens; for activity at 10 µM: MDA-MB-231, read-out: percent cell growth promotion
T-47D = assay: NCI 60 cell panel SRB screen; assay type: cell-based; settings: Homo sapiens, T47D; for activity at 10 µM: read-out: percent cell growth promotion
full NCI 60 cell panel = assay: NCI 60 cell panel SRB screen, whole panel; assay type: cell-based, human; settings: for activity at 10 µM: mean over the panel, single dose 10 μM, read-out: Mean percent cell growth promotion
[1] = 5 log dose, 48 h, read-out: LC50 (the source's name)

Compound: Cc1nnc(N2CCN(c3ccccc3F)CC2)c2ccccc12 [Compound 8h, 1–(4-(2-Fluorophenyl)piperazin-1-yl)-4-methylphthalazine]
- activity at 10 µM (K-562): 110%
- activity at 10 µM (RPMI-8226): 101%
- activity at 10 µM (A549/ATCC): 89%
- activity at 10 µM (HOP-62): 100%
- activity at 10 µM (NCI-H226): 90.1%
- activity at 10 µM (NCI-H23): 101%
- activity at 10 µM (NCI-H522): 89%
- activity at 10 µM (HCC-2998): 101%
- activity at 10 µM (SF-295): 92.7%
- activity at 10 µM (SNB-19): 99.9%
- activity at 10 µM (OVCAR-8): 95.3%
- activity at 10 µM (NCI/ADR-RES): 96.9%
- activity at 10 µM (ACHN): 98.4%
- activity at 10 µM (UO-31): 95.9%
- activity at 10 µM (PC-3): 99%
- activity at 10 µM (MCF7): 86.5%
- activity at 10 µM (MDA-MB 231/ATCC): 121%
- activity at 10 µM (T-47D): 82.3%
- activity at 10 µM (full NCI 60 cell panel; Homo sapiens, 60 cell): 99%
- cell growth inhibition, in words (full NCI 60 cell panel; single dose 10 µM): nor the piperazines (8a, 8d, 8f, 8g, 8h and 8i) showed any significant cell line growth inhibition

Compound: Cc1nnc(N2CCN(c3ccccn3)CC2)c2ccccc12 [Compound 8i, 1-Methyl-4–(4-(pyridin-2-yl)piperazin-1-yl)phthalazine]
- activity at 10 µM (K-562): 101%
- activity at 10 µM (RPMI-8226): 104%
- activity at 10 µM (A549/ATCC): 92.3%
- activity at 10 µM (HOP-62): 99.8%
- activity at 10 µM (NCI-H226): 98.7%
- activity at 10 µM (NCI-H23): 106%
- activity at 10 µM (NCI-H522): 94.5%
- activity at 10 µM (HCC-2998): 102%
- activity at 10 µM (SF-295): 87.8%
- activity at 10 µM (SNB-19): 101%
- activity at 10 µM (OVCAR-8): 98.9%
- activity at 10 µM (NCI/ADR-RES): 105%
- activity at 10 µM (ACHN): 99.6%
- activity at 10 µM (UO-31): 102%
- activity at 10 µM (PC-3): 100%
- activity at 10 µM (MCF7): 89.1%
- activity at 10 µM (MDA-MB 231/ATCC): 117%
- activity at 10 µM (T-47D): 96%
- activity at 10 µM (full NCI 60 cell panel; Homo sapiens, 60 cell): 101%
- cell growth inhibition, in words (full NCI 60 cell panel; single dose 10 µM): nor the piperazines (8a, 8d, 8f, 8g, 8h and 8i) showed any significant cell line growth inhibition

Compound: O=C(Nc1ccccc1)Nc1ccc(Oc2nnc(Cl)c3ccccc23)cc1 [Compound 13a, 1–(4-(4-Chlorophthalazin-1-yloxy)phenyl)-3-phenylurea]
- GI50 (K-562; K-562, 5 log dose): 6.21 µM
- IC (TGI) (K-562; K-562, 5 log dose): > 25 µM
- CC50 (K-562; K-562, 5 log dose, 48 h, read-out: LC50 (the source's name)): > 25 µM
- activity at 10 µM (K-562): 51.6%
- GI50 (RPMI-8226; RPMI-8226, 5 log dose): 4.45 µM
- IC (TGI) (RPMI-8226; RPMI-8226, 5 log dose): 24.3 µM
- CC50 (RPMI-8226; RPMI-8226, 5 log dose, 48 h, read-out: LC50 (the source's name)): > 25 µM
- activity at 10 µM (RPMI-8226): 35.1%
- GI50 (A549/ATCC; 5 log dose): 3.47 µM
- IC (TGI) (A549/ATCC; 5 log dose): 18.4 µM
- LC50 (concentration killing 50% of cells) (A549/ATCC; 5 log dose, 48 h): > 25 µM
- activity at 10 µM (A549/ATCC): 11.2%
- GI50 (HOP-62; HOP-62, 5 log dose): 2.52 µM
- IC (TGI) (HOP-62; HOP-62, 5 log dose): 65.4 µM
- CC50 (HOP-62; HOP-62, 5 log dose, 48 h, read-out: LC50 (the source's name)): 17 µM
- activity at 10 µM (HOP-62): -43.4%
- GI50 (NCI-H226; NCI-H226, 5 log dose): 1.95 µM
- IC (TGI) (NCI-H226; NCI-H226, 5 log dose): 9.25 µM
- CC50 (NCI-H226; NCI-H226, 5 log dose, 48 h, read-out: LC50 (the source's name)): > 25 µM
- activity at 10 µM (NCI-H226): 8.66%
- GI50 (NCI-H23; NCI-H23, 5 log dose): 3.72 µM
- IC (TGI) (NCI-H23; NCI-H23, 5 log dose): 9.44 µM
- CC50 (NCI-H23; NCI-H23, 5 log dose, 48 h, read-out: LC50 (the source's name)): 24 µM
- activity at 10 µM (NCI-H23): 32.7%
- GI50 (NCI-H522; NCI-H522, 5 log dose): 2.8 µM
- IC (TGI) (NCI-H522; NCI-H522, 5 log dose): 9.68 µM
- CC50 (NCI-H522; NCI-H522, 5 log dose, 48 h, read-out: LC50 (the source's name)): > 25 µM
- activity at 10 µM (NCI-H522): 2%
- GI50 (HCC-2998; HCC-2998, 5 log dose): 4.2 µM
- IC (TGI) (HCC-2998; HCC-2998, 5 log dose): 12.2 µM
- LC50 (50% lethal concentration) (HCC-2998; HCC-2998, 5 log dose, 48 h): > 25 µM
- activity at 10 µM (HCC-2998): 52.9%
- GI50 (SF-295; SF-295, 5 log dose): 2.07 µM
- IC (TGI) (SF-295; SF-295, 5 log dose): 5.63 µM
- CC50 (SF-295; SF-295, 5 log dose, 48 h, read-out: LC50 (the source's name)): 13.5 µM
- activity at 10 µM (SF-295): 31.2%
- GI50 (SNB-19; SNB-19, 5 log dose): 1.67 µM
- IC (TGI) (SNB-19; SNB-19, 5 log dose): 8.46 µM
- CC50 (SNB-19; SNB-19, 5 log dose, 48 h, read-out: LC50 (the source's name)): > 25 µM
- activity at 10 µM (SNB-19): 9.64%
- GI50 (OVCAR-8; OVCAR-8, 5 log dose): 2.6 µM
- IC (TGI) (OVCAR-8; OVCAR-8, 5 log dose): 6.53 µM
- CC50 (OVCAR-8; OVCAR-8, 5 log dose, 48 h, read-out: LC50 (the source's name)): 16.4 µM
- activity at 10 µM (OVCAR-8): 15.5%
- GI50 (NCI/ADR-RES; 5 log dose): 2.63 µM
- IC (TGI) (NCI/ADR-RES; 5 log dose): 6.39 µM
- CC50 (NCI/ADR-RES; [1]): 15.5 µM
- activity at 10 µM (NCI/ADR-RES): 16.9%
- GI50 (ACHN; 5 log dose): 3.47 µM
- IC (TGI) (ACHN; 5 log dose): 18.7 µM
- CC50 (ACHN; [1]): > 25 µM
- activity at 10 µM (ACHN): 33.9%
- GI50 (UO-31; UO-31, 5 log dose): 3.98 µM
- IC (TGI) (UO-31; UO-31, 5 log dose): 19.6 µM
- CC50 (UO-31; UO-31, 5 log dose, 48 h, read-out: LC50 (the source's name)): > 25 µM
- activity at 10 µM (UO-31): 34.9%
- GI50 (PC-3; PC-3, 5 log dose): 3.26 µM
- IC (TGI) (PC-3; PC-3, 5 log dose): 10.6 µM
- CC50 (PC-3; PC-3, 5 log dose, 48 h, read-out: LC50 (the source's name)): > 25 µM
- activity at 10 µM (PC-3): 25.9%
- GI50 (MCF7; MCF7): 1.32 µM
- IC (TGI) (MCF7; MCF7, read-out: TGI): 6.32 µM
- activity at 10 µM (MCF7): -4.15%
- CC50 (MCF7; MCF7, 5 log dose, 48 h, read-out: LC50 (the source's name)): 20.6 µM
- GI50 (MDA-MB 231/ATCC; MDA-MB-231): 4.76 µM
- IC (TGI) (MDA-MB 231/ATCC; MDA-MB-231, read-out: TGI): 12.3 µM
- activity at 10 µM (MDA-MB 231/ATCC): 32.1%
- CC50 (MDA-MB 231/ATCC; MDA-MB-231, MDA-MDA 231/ATCC, 5 log dose, 48 h, read-out: LC50 (the source's name)): > 25 µM
- GI50 (T-47D): 0.63 µM
- IC (TGI) (T-47D; read-out: TGI): 10.8 µM
- activity at 10 µM (T-47D): -18%
- CC50 (T-47D; T-47D, 5 log dose, 48 h, read-out: LC50 (the source's name)): > 25 µM
- activity at 10 µM (full NCI 60 cell panel; Homo sapiens, 60 cell): 24.1%
- inhibition at 10 µM (full NCI 60 cell panel; Homo sapiens, 60 cell, single dose 10 µM, read-out: cell growth inhibition against various cell lines): > 90%

Compound: O=C(Nc1ccc(Cl)cc1)Nc1ccc(Oc2nnc(Cl)c3ccccc23)cc1 [Compound 13b, 1–(4-Chlorophenyl)-3–(4-(4-chlorophthalazin-1-yloxy)phenyl)urea]
- activity at 10 µM (K-562): 93.2%
- activity at 10 µM (RPMI-8226): 87.7%
- activity at 10 µM (A549/ATCC): 78.2%
- activity at 10 µM (HOP-62): 93.3%
- activity at 10 µM (NCI-H226): 81.4%
- activity at 10 µM (NCI-H23): 89%
- activity at 10 µM (NCI-H522): 52.5%
- activity at 10 µM (HCC-2998): 115%
- activity at 10 µM (SF-295): 91.6%
- activity at 10 µM (SNB-19): 103%
- activity at 10 µM (OVCAR-8): 86%
- activity at 10 µM (NCI/ADR-RES): 83.6%
- activity at 10 µM (ACHN): 80.7%
- activity at 10 µM (UO-31): 53.9%
- activity at 10 µM (PC-3): 67.8%
- activity at 10 µM (MCF7): 86.2%
- activity at 10 µM (MDA-MB 231/ATCC): 67.5%
- activity at 10 µM (T-47D): 70.5%
- activity at 10 µM (full NCI 60 cell panel; Homo sapiens, 60 cell): 88.7%
- cell growth inhibition, in words (full NCI 60 cell panel; single dose 10 µM): did not show any significant cell line growth inhibition
